Results from patent US9701670B2, “Pyrazolyl-ureas as kinase inhibitors” (RESPIVERT LIMITED, priority 2013, dated 2017).
pIC50: −log10 of the molar value.

Legend:
[1] = molecular target: p38 MAPKα isoform (MAPK14) (Homo sapiens (Human), UniProt Q16539); test: p38 MAPKα enzyme inhibition (FRET, Z-LYTE), Method 1; assay type: biochemical; conditions: Method 1 (Table 4a1)
Method: The enzyme inhibitory activities of compounds disclosed herein are determined by FRET using synthetic peptides labelled with both donor and acceptor fluorophores (Z-LYTE, Invitrogen Ltd., Paisley, UK).
The inhibitory activities of test compounds against the p38 MAPKα isoform (MAPK14: Invitrogen), are evaluated indirectly by determining the level of activation/phosphorylation of the down-stream molecule, MAPKAP-K2. The p38 MAPKα protein (80 ng/mL, 2.5 μL) is mixed with the test compound (2.5 μL of either 4 μg/mL, 0.4 μg/mL, 0.04 μg/mL or 0.004 μg/mL) for 2 hr at RT. […] The mixture is incubated for 1 hr at RT. Development reagent (protease, 5 μL) is added for 1 hr prior to detection in a fluorescence microplate reader (Varioskan® Flash, ThermoFisher Scientific).
In all cases, the site-specific protease cleaves non-phosphorylated peptide only and eliminates the FRET signal. Phosphorylation levels of each reaction are calculated using the ratio of coumarin emission (donor) over fluorescein emission (acceptor), for which high ratios indicate high phosphorylation and low ratios indicate low phosphorylation levels.

[2] = tested on: Differentiated U937 cells; test: (l) Cell viability: MTT assay; assay type: cell-based, human; conditions: 1 μg/mL
Method: Differentiated U937 cells are pre-incubated with each test compound (final concentration 1 μg/mL or 10 μg/mL in 200 μL media indicated below) under two protocols: the first for 4 hr in 5% FCS RPMI1640 media and the second in 10% FCS RPMI1640 media for 24 h. The supernatant is replaced with new media (200 μL) and MTT stock solution (10 μL, 5 mg/mL) is added to each well. After incubation for 1 hr the media are removed, DMSO (200 μL) is added to each well and the plates are shaken lightly for 1 hr prior to reading the absorbance at 550 nm. The percentage loss of cell viability is calculated for each well relative to vehicle (0.5% DMSO) treatment. Consequently an apparent increase in cell viability for drug treatment relative to vehicle is tabulated as a negative percentage.

Sequence of p38 MAPKα isoform (MAPK14) (Q16539 whole entry, canonical isoform): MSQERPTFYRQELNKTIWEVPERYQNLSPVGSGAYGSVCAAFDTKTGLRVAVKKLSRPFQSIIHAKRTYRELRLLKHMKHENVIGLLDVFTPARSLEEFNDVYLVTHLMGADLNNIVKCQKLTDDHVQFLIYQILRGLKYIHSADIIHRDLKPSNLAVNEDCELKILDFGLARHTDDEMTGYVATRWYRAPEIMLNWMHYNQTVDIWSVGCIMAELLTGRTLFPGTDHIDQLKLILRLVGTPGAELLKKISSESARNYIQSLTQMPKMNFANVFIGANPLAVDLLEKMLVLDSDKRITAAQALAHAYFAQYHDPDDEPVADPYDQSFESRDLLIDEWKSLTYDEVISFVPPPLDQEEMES

| pIC50 [1] | Compound | Cell viability at time point in d-U937 cells 4 h [2] | Cell viability at time point in d-U937 cells 24 h [2] |
| --- | --- | --- | --- |
| 7.92 | Cc1ccc(-n2nc(C(C)(C)C)cc2NC(=O)Nc2ccc(Oc3ccnc(Nc4cccc(C(=O)N(C)C)c4)n3)c3ccccc23)cc1 [Example 26, 3-((4-((4-(3-(3-(tert-butyl)-1-(p-tolyl)-1H-pyrazol-5-yl)ureido)naphthalen-1-yl)oxy)pyrimidin-2-yl)amino)-N,N-dimethylbenzamide] | −ve (−ve and +ve indicate that the value is below and above respectively, the no significant effect threshold, defined as 30% inhibition at 1 μg/mL at the time point indicated.) | −ve (−ve and +ve indicate that the value is below and above respectively, the no significant effect threshold, defined as 30% inhibition at 1 μg/mL at the time point indicated.) |
| – | COc1ccc(-n2nc(C(C)C)cc2NC(=O)Nc2ccc(Oc3ccnc(Nc4cc(OC)cc(C(=O)NCCN(C)C)c4)n3)c3ccccc23)cc1 [Example 6, N-(2-(Dimethylamino)ethyl)-3-((4-((4-(3-(3-isopropyl-1-(4-methoxyphenyl)-1H-pyrazol-5-yl)ureido)naphthalen-1-yl)oxy)pyrimidin-2-yl)amino)-5-methoxy benzamide] | −ve (−ve and +ve indicate that the value is below and above respectively, the no significant effect threshold, defined as 30% inhibition at 1 μg/mL at the time point indicated.) | −ve (−ve and +ve indicate that the value is below and above respectively, the no significant effect threshold, defined as 30% inhibition at 1 μg/mL at the time point indicated.) |
| – | COc1cc(Nc2nccc(Oc3ccc(NC(=O)Nc4cc(C(C)(C)C)nn4-c4ccc(OC)nc4)c4ccccc34)n2)cc(C(=O)NCCN2CCOCC2)c1 [Example 57, 3-((4-((4-(3-(3-(tert-butyl)-1-(6-methoxypyridin-3-yl)-1H-pyrazol-5-yl)ureido)naphthalen-1-yl)oxy)pyrimidin-2-yl)amino)-5-methoxy-N-(2-morpholinoethyl)benzamide] | −ve (−ve and +ve indicate that the value is below and above respectively, the no significant effect threshold, defined as 30% inhibition at 1 μg/mL at the time point indicated.) | −ve (−ve and +ve indicate that the value is below and above respectively, the no significant effect threshold, defined as 30% inhibition at 1 μg/mL at the time point indicated.) |
| 7.57 | Cc1ccc(-n2nc(C(C)(C)C)cc2NC(=O)Nc2ccc(Oc3ccnc(Nc4cccc(C(N)=O)c4)n3)c3ccccc23)cc1 [Example 2, 3-((4-((4-(3-(3-(tert-Butyl)-1-(p-tolyl)-1H-pyrazol-5-yl)ureido)naphthalen-1-yl)oxy)pyrimidin-2-yl)amino)benzamide] | −ve (−ve and +ve indicate that the value is below and above respectively, the no significant effect threshold, defined as 30% inhibition at 1 μg/mL at the time point indicated.) | −ve (−ve and +ve indicate that the value is below and above respectively, the no significant effect threshold, defined as 30% inhibition at 1 μg/mL at the time point indicated.) |
| 8.05 | COCCOc1cccc(-n2nc(C(C)(C)C)cc2NC(=O)Nc2ccc(Oc3ccnc(Nc4cc(OC)cc(C(=O)NCCN5CCOCC5)c4)n3)c3ccccc23)c1 [Example 55, 3-((4-((4-(3-(3-(tert-butyl)-1-(3-(2-methoxyethoxy)phenyl)-1H-pyrazol-5-yl)ureido)naphthalen-1-yl)oxy)pyrimidin-2-yl)amino)-5-methoxy-N-(2-morpholinoethyl)benzamide] | −ve (−ve and +ve indicate that the value is below and above respectively, the no significant effect threshold, defined as 30% inhibition at 1 μg/mL at the time point indicated.) | −ve (−ve and +ve indicate that the value is below and above respectively, the no significant effect threshold, defined as 30% inhibition at 1 μg/mL at the time point indicated.) |
| 6.78 | COc1ccc(-n2nc(C(C)(C)C)cc2NC(=O)Nc2ccc(Oc3ccnc(Nc4cc(Br)cc(C(N)=O)c4)n3)c3ccccc23)cc1 [Example 42, 3-bromo-5-((4-((4-(3-(3-(tert-butyl)-1-(4-methoxyphenyl)-1H-pyrazol-5-yl)ureido)naphthalen-1-yl)oxy)pyrimidin-2-yl)amino)benzamide] | −ve (−ve and +ve indicate that the value is below and above respectively, the no significant effect threshold, defined as 30% inhibition at 1 μg/mL at the time point indicated.) | −ve (−ve and +ve indicate that the value is below and above respectively, the no significant effect threshold, defined as 30% inhibition at 1 μg/mL at the time point indicated.) |
| – | Cc1ccc(-n2nc(C(C)C)cc2NC(=O)Nc2ccc(Oc3ccnc(Nc4cccc(C(=O)NCCN5CCOCC5)c4)n3)c3ccccc23)cc1 [Example 19, 3-((4-((4-(3-(3-isopropyl-1-(p-tolyl)-1H-pyrazol-5-yl)ureido)naphthalen-1-yl)oxy)pyrimidin-2-yl)amino)-N-(2-morpholinoethyl)benzamide] | −ve (−ve and +ve indicate that the value is below and above respectively, the no significant effect threshold, defined as 30% inhibition at 1 μg/mL at the time point indicated.) | −ve (−ve and +ve indicate that the value is below and above respectively, the no significant effect threshold, defined as 30% inhibition at 1 μg/mL at the time point indicated.) |
| – | COc1ccc(Nc2nccc(Oc3ccc(NC(=O)Nc4cc(C(C)(C)C)nn4-c4ccc(C)cc4)c4ccccc34)n2)cc1C(=O)NCCN1CCOCC1 [Example 13, 5-((4-((4-(3-(3-(tert-Butyl)-1-(p-tolyl)-1H-pyrazol-5-yl)ureido)naphthalen-1-yl)oxy)pyrimidin-2-yl)amino)-2-methoxy-N-(2-morpholinoethyl)benzamide] | −ve (−ve and +ve indicate that the value is below and above respectively, the no significant effect threshold, defined as 30% inhibition at 1 μg/mL at the time point indicated.) | −ve (−ve and +ve indicate that the value is below and above respectively, the no significant effect threshold, defined as 30% inhibition at 1 μg/mL at the time point indicated.) |
| – | Cc1ccc(-n2nc(C(C)C)cc2NC(=O)Nc2ccc(Oc3ccnc(Nc4cc(C(=O)NCCN5CCOCC5)cc(C(F)(F)F)c4)n3)c3ccccc23)cc1 [Example 7, 3-((4-((4-(3-(3-isopropyl-1-(p-tolyl)-1H-pyrazol-5-yl)ureido)naphthalen-1-yl)oxy)pyrimidin-2-yl)amino)-N-(2-morpholinoethyl)-5-(trifluoromethyl)benzamide] | −ve (−ve and +ve indicate that the value is below and above respectively, the no significant effect threshold, defined as 30% inhibition at 1 μg/mL at the time point indicated.) | −ve (−ve and +ve indicate that the value is below and above respectively, the no significant effect threshold, defined as 30% inhibition at 1 μg/mL at the time point indicated.) |
| 8.02 | COc1ccc(-n2nc(C(C)(C)C)cc2NC(=O)Nc2ccc(Oc3cc(Nc4cc(OC)cc(C(=O)NCCN5CCOCC5)c4)ncn3)c(C)c2C)cc1 [Example 91, 3-((6-(4-(3-(3-(tert-Butyl)-1-(4-methoxyphenyl)-1H-pyrazol-5-yl)ureido)-2,3-dimethylphenoxy)pyrimidin-4-yl)amino)-5-methoxy-N-(2-morpholinoethyl)benzamide] | – | – |
| – | COc1ccc(-n2nc(C(C)C)cc2NC(=O)Nc2ccc(Oc3ccnc(Nc4cc(C)cc(C(=O)NCCN5CCOCC5)c4)n3)c3ccccc23)cc1 [Example 45, 3-((4-((4-(3-(3-isopropyl-1-(4-methoxyphenyl)-1H-pyrazol-5-yl)ureido)naphthalen-1-yl)oxy)pyrimidin-2-yl)amino)-5-methyl-N-(2-morpholinoethyl)benzamide] | −ve (−ve and +ve indicate that the value is below and above respectively, the no significant effect threshold, defined as 30% inhibition at 1 μg/mL at the time point indicated.) | −ve (−ve and +ve indicate that the value is below and above respectively, the no significant effect threshold, defined as 30% inhibition at 1 μg/mL at the time point indicated.) |
| – | COc1ccc(C(=O)NCCN(C)C)cc1Nc1nccc(Oc2ccc(NC(=O)Nc3cc(C(C)(C)C)nn3-c3ccc(C)cc3)c3ccccc23)n1 [Example 29, 3-((4-((4-(3-(3-(tert-butyl)-1-(p-tolyl)-1H-pyrazol-5-yl)ureido)naphthalen-1-yl)oxy)pyrimidin-2-yl)amino)-N-(2-(dimethylamino)ethyl)-4-methoxybenzamide] | −ve (−ve and +ve indicate that the value is below and above respectively, the no significant effect threshold, defined as 30% inhibition at 1 μg/mL at the time point indicated.) | −ve (−ve and +ve indicate that the value is below and above respectively, the no significant effect threshold, defined as 30% inhibition at 1 μg/mL at the time point indicated.) |
